Data taken from PubChem BioAssay AID330 (DTP/NCI, 2004).
Values joined by “and” are separate entries in the source; they are usually repeats but may differ in a detail not shown here. Equal entries are not always repeated. Toxic doses and inconclusive results are not listed. Rule for the calls: active = survival T/C of 150% or more; inactive = T/C below 125% in these data.

Test system: P388 leukemia ip, CD2F1 mice, survival T/C
Experiment: NCI In Vivo Anticancer Drug Screen. Data for tumor model P388 Leukemia (intraperitoneal) in CD2F1 (CDF1) mice
Conditions: endpoint: median survival time, higher = longer survival
Procedure, shortened: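 Mice carrying the transplanted tumor received test compound or vehicle. Survival was recorded in each group, and the value is the treated-group measurement divided by that of the vehicle-treated control group.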

[1] = dose: 25.0 mg/kg/injection, schedule: Q04DX002 (ip), vehicle: saline with Tween-80
[2] = dose: 50.0 mg/kg/injection, schedule: Q01DX005 (ip), vehicle: saline with Tween-80
[3] = dose: 100.0 mg/kg/injection, schedule: Q01DX005 (ip), vehicle: saline with Tween-80
[4] = dose: 200.0 mg/kg/injection, schedule: Q01DX005 (ip), vehicle: saline with Tween-80
[5] = dose: 50.0 mg/kg/injection, schedule: Q01DX009 (ip), vehicle: Klucel (hydroxypropylcellulose) (HPC)
[6] = dose: 100.0 mg/kg/injection, schedule: Q01DX009 (ip), vehicle: Klucel (hydroxypropylcellulose) (HPC)
[7] = dose: 200.0 mg/kg/injection, schedule: Q01DX009 (ip), vehicle: Klucel (hydroxypropylcellulose) (HPC)
[8] = dose: 50.0 mg/kg/injection, schedule: Q01DX005 (ip), vehicle: Klucel (hydroxypropylcellulose) (HPC)
[9] = dose: 100.0 mg/kg/injection, schedule: Q01DX005 (ip), vehicle: Klucel (hydroxypropylcellulose) (HPC)
[10] = dose: 200.0 mg/kg/injection, schedule: Q01DX005 (ip), vehicle: Klucel (hydroxypropylcellulose) (HPC)
[11] = dose: 60.0 mg/kg/injection, schedule: Q01DX005 (ip), vehicle: saline with Tween-80
[12] = dose: 120.0 mg/kg/injection, schedule: Q01DX005 (ip), vehicle: saline with Tween-80
[13] = dose: 240.0 mg/kg/injection, schedule: Q01DX005 (ip), vehicle: saline with Tween-80

Measured: T/C

CC1=NN(C(=O)c2ccccc2)C(=O)C1N=Nc1ccc([N+](=O)[O-])cc1 (stereo unspecified)
inactive: [1] 101 % of control | dose: 50.0 mg/kg/injection, schedule: Q04DX002 (ip), vehicle: saline with Tween-80 100 % of control | dose: 100.0 mg/kg/injection, schedule: Q04DX002 (ip), vehicle: saline with Tween-80 88 % of control and 92 % of control

CSc1nc(NC2OC(COC(C)=O)C(OC(C)=O)C(OC(C)=O)C2OC(C)=O)c(C(=O)CCl)c(=O)n1C (stereo unspecified)
inactive: [2] 102 % of control | [3] 96 % of control | [4] 92 % of control

c1cc2c3c(c1)CCC3CCC2 (stereo unspecified)
inactive: dose: 50.0 mg/kg/injection, schedule: Q01DX009 (ip), vehicle: saline with Tween-80 112 % of control | dose: 100.0 mg/kg/injection, schedule: Q01DX009 (ip), vehicle: saline with Tween-80 109 % of control and 117 % of control | dose: 200.0 mg/kg/injection, schedule: Q01DX009 (ip), vehicle: saline with Tween-80 118 % of control

COc1ccc(-c2sc(/N=C/c3ccc(N(C)CCC#N)cc3)c(C#N)c2C)cc1OC
inactive: dose: 3.13 mg/kg/injection, schedule: Q01DX009 (ip), vehicle: Klucel (hydroxypropylcellulose) (HPC) 89 % of control | dose: 6.25 mg/kg/injection, schedule: Q01DX009 (ip), vehicle: Klucel (hydroxypropylcellulose) (HPC) 91 % of control | dose: 12.5 mg/kg/injection, schedule: Q01DX009 (ip), vehicle: Klucel (hydroxypropylcellulose) (HPC) 91 % of control | dose: 25.0 mg/kg/injection, schedule: Q01DX009 (ip), vehicle: Klucel (hydroxypropylcellulose) (HPC) 90 % of control

CC(C)(C)c1ccc(C(=O)Nc2ccc(Cl)cc2Oc2ccccc2)cc1
inactive: [5] 93 % of control | [6] 97 % of control | [7] 86 % of control

CC1=C(C#N)C(=O)NC(C)C1 (stereo unspecified)
inactive: dose: 25.0 mg/kg/injection, schedule: Q01DX005 (ip), vehicle: Klucel (hydroxypropylcellulose) (HPC) 108 % of control | [8] 101 % of control | [9] 108 % of control | [3] 98 % of control | [10] 104 % of control | [4] 99 % of control | dose: 400.0 mg/kg/injection, schedule: Q01DX005 (ip), vehicle: saline with Tween-80 102 % of control | dose: 500.0 mg/kg/injection, schedule: Q01DX001 (ip), vehicle: saline with Tween-80 100 % of control | dose: 1000.0 mg/kg/injection, schedule: Q01DX001 (ip), vehicle: saline with Tween-80 99 % of control | dose: 2000.0 mg/kg/injection, schedule: Q01DX001 (ip), vehicle: saline with Tween-80 108 % of control

Cc1cc(C(=O)O)c(C)c2c1sc1ccccc12
inactive: [11] 101 % of control | [12] 114 % of control

NC1CCCCCCC1
inactive: dose: 50.0 mg/kg/injection, schedule: Q01DX005 (ip), vehicle: saline 94 % of control | dose: 100.0 mg/kg/injection, schedule: Q01DX005 (ip), vehicle: saline 103 % of control | dose: 200.0 mg/kg/injection, schedule: Q01DX005 (ip), vehicle: saline 117 % of control

CCOC(=O)c1c(N)sc2c1CCCC2
inactive: dose: 50.0 mg/kg/injection, schedule: Q04DX003 (ip), vehicle: saline with Tween-80 101 % of control | dose: 100.0 mg/kg/injection, schedule: Q01DX001 (ip), vehicle: saline sonified 100 % of control | dose: 100.0 mg/kg/injection, schedule: Q04DX003 (ip), vehicle: saline with Tween-80 108 % of control | dose: 200.0 mg/kg/injection, schedule: Q01DX001 (ip), vehicle: saline sonified 100 % of control | dose: 200.0 mg/kg/injection, schedule: Q04DX003 (ip), vehicle: saline with Tween-80 105 % of control | dose: 400.0 mg/kg/injection, schedule: Q01DX001 (ip), vehicle: saline sonified 100 % of control | dose: 400.0 mg/kg/injection, schedule: Q04DX003 (ip), vehicle: saline with Tween-80 101 % of control

CCN(CC)CCOC(=O)C(C1CCCCC1)C1(O)CCCCCC1 (stereo unspecified)
inactive: [2] 104 % of control | [3] 102 % of control | [4] 95 % of control

CCC(=O)C12CCCC1=NC(=N)N=C2C1=NC(=N)N=C2CCCC21C(=O)CC (stereo unspecified)
inactive: dose: 60.0 mg/kg/injection, schedule: Q01DX005 (ip), vehicle: saline 102 % of control | dose: 120.0 mg/kg/injection, schedule: Q01DX005 (ip), vehicle: saline 108 % of control | dose: 240.0 mg/kg/injection, schedule: Q01DX005 (ip), vehicle: saline 88 % of control

COC1OC(C(C)O)C2OC(C)(C)OC12 (stereo unspecified)
inactive: dose: 30.0 mg/kg/injection, schedule: Q01DX005 (ip), vehicle: saline with Tween-80 101 % of control | [11] 104 % of control and 106 % of control | [12] 108 % of control | [13] 106 % of control and 110 % of control

c1cnc2c(c1)-n1cccc1C1(CCCCC1)NN2
inactive: dose: 100.0 mg/kg/injection, schedule: Q01DX001 (ip), vehicle: saline with Tween-80 108 % of control | dose: 200.0 mg/kg/injection, schedule: Q01DX001 (ip), vehicle: saline with Tween-80 93 % of control | dose: 400.0 mg/kg/injection, schedule: Q01DX001 (ip), vehicle: saline with Tween-80 93 % of control

CC1=CC2=C(C#N)C(=O)OC2(C)C(c2ccccc2)C1 (stereo unspecified)
inactive: [11] 100 % of control | [12] 101 % of control | [13] 100 % of control

Cc1ccc2nc(N/N=C/c3cccs3)sc2c1
inactive: [5] 100 % of control | [6] 101 % of control | [7] 94 % of control

C=C(C)C12CC(C)C34OC(/C=C/C=C/CCCCC)(OC1C3C1OC1(CO)C(O)C1(O)C(=O)C(C)=CC14)O2 (stereo unspecified)
inactive: dose: 0.03 mg/kg/injection, schedule: Q01DX009 (ip), vehicle: distilled water + alcohol 96 % of control | dose: 0.06 mg/kg/injection, schedule: Q01DX009 (ip), vehicle: distilled water + alcohol 102 % of control | dose: 0.12 mg/kg/injection, schedule: Q01DX009 (ip), vehicle: distilled water + alcohol 98 % of control | dose: 0.25 mg/kg/injection, schedule: Q01DX009 (ip), vehicle: distilled water + alcohol 106 % of control | dose: 0.5 mg/kg/injection, schedule: Q01DX009 (ip), vehicle: distilled water + alcohol 98 % of control | dose: 1.0 mg/kg/injection, schedule: Q01DX009 (ip), vehicle: distilled water + alcohol 108 % of control

COc1ccc2c(C)cc(N/N=C\c3cccc4ccccc34)nc2c1
inactive: [8] 98 % of control | [9] 93 % of control | [10] 106 % of control

COC(=O)N1C=Cc2ccccc2C1(C#N)C(=S)SC (stereo unspecified)
inactive: [2] 102 % of control | [3] 93 % of control | [4] 91 % of control

CCOC(=O)NNS(=O)(=O)CCC(N)C(=O)O (stereo unspecified)
inactive: dose: 12.5 mg/kg/injection, schedule: Q01DX009 (ip), vehicle: water 98 % of control | dose: 25.0 mg/kg/injection, schedule: Q01DX009 (ip), vehicle: water 88 % of control and 95 % of control | dose: 50.0 mg/kg/injection, schedule: Q01DX009 (ip), vehicle: water 87 % of control and 90 % of control | dose: 100.0 mg/kg/injection, schedule: Q01DX009 (ip), vehicle: water 93 % of control | dose: 200.0 mg/kg/injection, schedule: Q01DX009 (ip), vehicle: water 109 % of control and 86 % of control | dose: 400.0 mg/kg/injection, schedule: Q01DX009 (ip), vehicle: water 111 % of control

[O-][n+]1cccc2c3ccccc3ncc21
inactive: dose: 6.25 mg/kg/injection, schedule: Q04DX002 (ip), vehicle: saline with Tween-80 94 % of control | dose: 12.5 mg/kg/injection, schedule: Q04DX002 (ip), vehicle: saline with Tween-80 108 % of control | [1] 100 % of control

O=C1CCCc2cc([N+](=O)[O-])ccc2N1
inactive: dose: 100.0 mg/kg/injection, schedule: Q01DX001 (ip), vehicle: Klucel (hydroxypropylcellulose) (HPC) 101 % of control | dose: 200.0 mg/kg/injection, schedule: Q01DX001 (ip), vehicle: Klucel (hydroxypropylcellulose) (HPC) 103 % of control | dose: 400.0 mg/kg/injection, schedule: Q01DX001 (ip), vehicle: Klucel (hydroxypropylcellulose) (HPC) 102 % of control
